Settings: for surface tension liquid-gas: Pendant drop shape; for mass density: 101.33 kPa, Liquid, Vibrating tube method

CCCCCCCCCCCCCC[P+](CCCCCC)(CCCCCC)CCCCCC.[Br-] [tetradecyltrihexylphosphonium bromide]
Settings	mass density [kg/m3]	surface tension liquid-gas [mN/m]
293.15 K	961.7	29.97
297.15 K	959.2	–
298.15 K	958.6	29.32
301.15 K	956.7	–
303.15 K	955.5	28.94
305.15 K	954.3	–
308.15 K	952.4	28.53
309.15 K	951.8	–
313.15 K	949.3	28.15
317.15 K	946.9	–
318.15 K	946.2	27.81
321.15 K	944.4	–
323.15 K	943.1	27.46
325.15 K	941.9	–
328.15 K	940.1	27.12
329.15 K	939.4	–
333.15 K	937	26.78
337.15 K	934.6	–
338.15 K	934	26.57
341.15 K	932.1	–
343.15 K	930.9	26.24
345.15 K	929.7	–
